Laboratory results: BindingDB's records for doi:10.1021/jm00129a004 (Bristol Myers Squibb, 1989)

Molecular target: HMG-CoA reductase (Rattus norvegicus)
Assay: In vitro inhibition of rat liver microsomal HMG-CoA reductase activity

Row | IC50 [nM] | SMILES
1 | 43 | Cn1nnnc1C(/C=C/[C@@H]1C[C@@H](O)CC(=O)O1)=C(c1ccc(F)cc1)c1ccc(F)cc1 [6-[4,4-Bis-(4-fluoro-phenyl)-3-(1-methyl-1H-tetrazol-5-yl)-buta-1,3-dienyl]-4-hydroxy-tetrahydro-pyran-2-one (BMY 22089)]
2 | 19 | Cn1nnnc1C(/C=C/[C@H]1C[C@H](O)CC(=O)O1)=C(c1ccc(F)cc1)c1ccc(F)cc1
